The target in test [1] is T1, His-GST-TVMV-hRIPK1(1-324) (Homo sapiens, UniProt Q13546).
T1 construct: The coding region of human RIPK1(1-324) flanked by NdeI site at 5′ end; made in house; host or cells: Spodoptera frugiperda (Sf9) insect cells, baculovirus
T1 sequence (Q13546 1-324): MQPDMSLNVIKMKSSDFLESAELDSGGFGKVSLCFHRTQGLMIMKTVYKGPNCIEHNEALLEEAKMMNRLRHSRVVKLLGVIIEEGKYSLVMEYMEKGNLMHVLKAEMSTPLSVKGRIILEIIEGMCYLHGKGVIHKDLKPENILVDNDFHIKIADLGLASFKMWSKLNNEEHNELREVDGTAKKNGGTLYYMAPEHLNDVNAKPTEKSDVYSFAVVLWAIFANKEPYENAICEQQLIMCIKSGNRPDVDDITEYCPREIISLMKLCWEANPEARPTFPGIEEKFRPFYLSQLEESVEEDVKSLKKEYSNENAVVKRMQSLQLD
Nature of the test: RIPK1 HTRF Binding Assay. On the procedure: The plate was incubated at rt for 1 h.
Cloning and Baculovirus Expression of RIPK1 Construct
Baculovirus was generated for the construct using the Bac-to-Bac baculovirus expression system (Invitrogen) according to the manufacturer's protocol. Briefly, recombinant bacmid was isolated from transformed DH10Bac E. coli competent cells (Invitrogen) and used to transfect Spodoptera frugiperda (Sf9) insect cells (Invitrogen). Baculovirus was harvested 72 hours post transfection and a virus stock was prepared by infecting fresh Sf9 cells at a 1/1000 (v/v) ratio for 66 hours.
The production was carried out either at a 10 L scale in a 22 L cellbag (GE Healthcare Bioscience, Pittsburgh, Pa.) or at a 20 L scale in a 50 L cellbag using WAVE-Bioreactor System 20/50 (GE Healthcare Bioscience). The infected cells were harvested by centrifugation at 2000 rpm for 20 min at 4° C. in a SORVALL® RC12BP centrifuge. The cell pellets was stored at −70° C. before protein was purified.
RIPK1 containing cell paste was resuspended in 50 mM Tris pH 7.5, 150 mM NaCl, 10 mM imidazole, 5% glycerol, 5 mM MgSO4, 1 mM TCEP, 25 U/ml Benzonase, and Complete Protease Inhibitor tablets (1/50 ml, Roche Diagnostics, Indianapolis, Ind.). […] The suspension was clarified by centrifugation at 136,000×g for 40 min, at 4° C. The lysate was decanted from the pellet and passed through a 5 ml NiNTA Superflow cartridge (Qiagen, Valencia, Calif.) using an AKTA Pure (GE Healthcare). Column was eluted with 10 CV linear gradient into 50 mM Tris 7.5, 150 mM NaCl, 500 mM imidazole, 5% glycerol, 1 mM TCEP. Peak fractions were pooled and loaded directly onto 5 ml GSTrap 4B column (GE Healthcare). Column was washed with 50 mM Tris 7.0, 150 mM NaCl, 5% glycerol, 1 mM DTT and eluted in 10 CV linear gradient into 50 mM Tris 8.0, 150 mM NaCl, 20 mM reduced glutathione, 5% glycerol, 1 mM DTT. Fractions identified by SDS-PAGE as containing RIPK1 were pooled and concentrated using 30 kDa MWCO spin concentrators (Amicon Ultra-15, Millipore, Billerica, Mass.) and loaded onto a HiLoad 26/600 Superdex 200 column (GE Healthcare) equilibrated in 25 mM Tris 7.5, 150 mM NaCl, 2 mM TCEP, 5% glycerol.
Protein was aliquoted and stored at −80° C.
For orientation: TR-FRET usually uses a lanthanide donor and a delayed reading to cut background.

The test system of test [2] is MLKL phosphorylation in HT29-L23 human colorectal adenocarcinoma cells. Nature of the test: MLKL Phosphorylation High-Content Assay. The test is classed as cell-based. The settings on record: Homo sapiens. On the procedure: MLKL Phosphorylation High-Content Assay
Following six hours incubation at 37° C. […] MLKL phosporylation was detected using anti-MLKL (phospho S358) antibody (Abcam #ab187091) (1:1000 dilution in Blocking Buffer [PBS supplemented with 0.1% BSA]) with overnight incubation at 4° C. […] Following another three cycles of washes in PBS, the microplates were sealed, and cellular images were acquired in the Cellomics ArrayScan VTI high-content imager equipped with an X1 camera. […] The image sets were analyzed using the Compartmental Analysis Bioapplication software (Cellomics). The level of MLKL phosphorylation was quantified as MEAN CircRingAvgIntenRatio. […] The data were fitted using the 4-parameter logistic equation to calculate the IC50 and Ymax values.

[3] abbreviates: x marks IC50 class <20 nM, read-out: RIPK1 HTRF binding <20 nM.
Where [4] appears, read: x marks IC50 class 20-200 nM, read-out: pMLKL cell activity 20-200 nM.
The mark [5] stands for this setting: x marks IC50 class 20-200 nM, read-out: RIPK1 HTRF binding 20-200 nM.
Where [6] appears, read: x marks IC50 class >200 nM, read-out: pMLKL cell activity >200 nM.
Setting [7] is: x marks IC50 class <20 nM, read-out: pMLKL cell activity <20 nM.

pIC50: −log10 of the molar value. Like-named read-outs stand apart in the source and are kept apart here. Bounds are passed on as bounds.

Consider `Cc1cnc(-c2ccn3nc(N)nc3c2)cc1C(=O)N[C@H](C)c1cc(OC(F)(F)F)ccc1F` [Example 392, (R)-2-(2-amino-[1,2,4]triazolo[1,5-a]pyridin-7-yl)-N-(1-(2-fluoro-5-(trifluoromethoxy)phenyl)ethyl)-5-methylisonicotinamide], for which the figures for the pIC50 in test [1] (setting [3]) and in test [2] (setting [4]) were > 7.70 and 6.70 to 7.70, respectively.
For `[2H]C([2H])([2H])[C@@H](NC(=O)c1cc(-c2ccn3nc(N)nc3c2)cnc1C)c1cccc(OC(F)(F)F)c1` [Example 311, (R)-5-(2-amino-[1,2,4]triazolo[1,5-a]pyridin-7-yl)-2-methyl-N-(1-(3-(trifluoromethoxy)phenyl)ethyl-2,2,2-H3)nicotinamide], the pIC50 in test [1] (setting [5]) is 6.70 to 7.70; in test [2] (setting [6]) it was < 6.70.
Turning to `COc1nc(C)c(-c2ccn3nc(N)nc3c2)cc1C(=O)N(C)[C@H](C)c1cc(OC(F)(F)F)ccc1F` [Example 325, (R)-5-(2-amino-[1,2,4]triazolo[1,5-a]pyridin-7-yl)-N-(1-(2-fluoro-5-(trifluoromethoxy)phenyl)ethyl)-2-methoxy-N,6-dimethylnicotinamide], the pIC50 in test [1] (setting [5]) and in test [2] (setting [4]) was 6.70 to 7.70 throughout.
As for `CCOc1ncc(-c2ccn3nc(N)nc3c2)cc1C(=O)NCC[C@@H](O)c1ccc(Cl)cc1` [Example 276, 5-{2-amino-[1,2,4]triazolo[1,5-a]pyridin-7-yl}-N-[(3R)-3-(4-chlorophenyl)-3-hydroxypropyl]-2-ethoxypyridine-3-carboxamide], the pIC50 in test [1] (x marks IC50 class >200 nM, read-out: RIPK1 HTRF binding >200 nM) is < 6.70; in test [2] (setting [6]) it was < 6.70.
As for `Cc1ncc(-c2ccn3nc(N)nc3c2)cc1C(=O)NCc1ccc(F)cc1OCC1CCCC1` [Example 18, 5-{2-Amino-[1,2,4]triazolo[1,5-a]pyridin-7-yl}-N-{[2-(cyclopentylmethoxy)-4-fluorophenyl]methyl}-2-methylpyridine-3-carboxamide], the values for the pIC50 in test [1] (setting [5]) and in test [2] (setting [6]) were 6.70 to 7.70 and < 6.70, respectively.
For the molecule `CCc1ncc(-c2ccn3nc(N)nc3c2)cc1C(=O)N[C@@H](C)c1cc(OC(F)(F)F)ccc1F` [Example 321, (S)-5-(2-amino-[1,2,4]triazolo[1,5-a]pyridin-7-yl)-2-ethyl-N-(1-(2-fluoro-5-(trifluoromethoxy)phenyl)ethyl)nicotinamide], the pIC50 in test [1] (setting [5]) and in test [2] (setting [4]) was 6.70 to 7.70 in each case.
Turning to `CCOc1ncc(-c2ccn3nc(N)nc3c2)cc1C(=O)NCc1cc(F)ccc1OC1CCCC1` [Example 264, 5-{2-amino-[1,2,4]triazolo[1,5-a]pyridin-7-yl}-N-{[2-(cyclopentyloxy)-5-fluorophenyl]methyl}-2-ethoxypyridine-3-carboxamide], the pIC50 in test [1] (setting [3]) and in test [2] (setting [7]) was > 7.70 in each case.
With `COc1ncc(-c2ccn3nc(N)nc3c2)cc1C(=O)NCc1ccccc1N1CCC(C)CC1` [Example 108, 5-{2-amino-[1,2,4]triazolo[1,5-a]pyridin-7-yl}-2-methoxy-N-{[2-(4-methylpiperidin-1-yl)phenyl]methyl}pyridine-3-carboxamide], the pIC50 in test [1] (setting [3]) and in test [2] (setting [7]) was > 7.70 each time.
Regarding `Cc1ncc(-c2ccn3nc(N)nc3c2)cc1C(=O)NCc1cc(F)cc(F)c1OC1CCOC1` (stereo not drawn) [Example 317, 5-(2-amino-[1,2,4]triazolo[1,5-a]pyridin-7-yl)-N-(3,5-difluoro-2-((tetrahydrofuran-3-yl)oxy)benzyl)-2-methylnicotinamide], the pIC50 in test [1] (setting [5]) is 6.70 to 7.70; in test [2] (setting [6]) it was < 6.70.
Take `Cc1ncc(-c2ccn3nc(N)nc3c2)cc1C(=O)NCCc1cccc(OC(F)(F)F)c1` [Example 227, 5-{2-amino-[1,2,4]triazolo[1,5-a]pyridin-7-yl}-2-methyl-N-{2-[3-(trifluoromethoxy)phenyl]ethyl}pyridine-3-carboxamide]: the pIC50 in test [1] (setting [5]) was 6.70 to 7.70; in test [2] (setting [6]) it was < 6.70.
`Cc1ncc(-c2ccn3nc(N)nc3c2)cc1C(=O)NCc1cc(F)cc(F)c1OCC1CC1` [Example 235, 5-{2-amino-[1,2,4]triazolo[1,5-a]pyridin-7-yl}-N-{[2-(cyclopropylmethoxy)-3,5-difluorophenyl]methyl}-2-methylpyridine-3-carboxamide]: the pIC50 in test [1] (setting [3]) is > 7.70; in test [2] (setting [4]), 6.70 to 7.70.
Taken in the same sequence, the figures for `CCc1ncc(-c2ccn3nc(N)nc3c2)cc1C(=O)NCCC(C)c1ccccc1` (stereo not drawn) [Example 66, 5-{2-Amino-[1,2,4]triazolo[1,5-a]pyridin-7-yl}-2-ethyl-N-(3-phenylbutyl)pyridine-3-carboxamide] were > 7.70 and 6.70 to 7.70.
`COc1ncc(-c2ccn3nc(N)nc3c2)nc1C(=O)NCc1cc(OC(F)(F)F)ccc1F` [Example 384, 6-(2-amino-[1,2,4]triazolo[1,5-a]pyridin-7-yl)-N-(2-fluoro-5-(trifluoromethoxy)benzyl)-3-methoxypyrazine-2-carboxamide]: the pIC50 in test [1] (setting [5]) was 6.70 to 7.70; in test [2] (setting [6]), < 6.70.
As for `COc1nc(C)c(-c2ccn3nc(N)nc3c2)cc1C(=O)NCc1cc(F)cc(F)c1C(=O)N1CCC(F)(F)C1` [Example 380, 5-(2-amino-[1,2,4]triazolo[1,5-a]pyridin-7-yl)-N-(2-(3,3-difluoropyrrolidine-1-carbonyl)-3,5-difluorobenzyl)-2-methoxy-6-methylnicotinamide], the pIC50 in test [1] (setting [3]) and in test [2] (setting [7]) was > 7.70 throughout.
On to `COc1ncc(-c2ccn3nc(N)nc3c2)cc1C(=O)NCc1cccc(F)c1C(=O)N1CCC(F)(F)C1` [Example 378, 5-(2-amino-[1,2,4]triazolo[1,5-a]pyridin-7-yl)-N-(2-(3,3-difluoropyrrolidine-1-carbonyl)-3-fluorobenzyl)-2-methoxynicotinamide], for which the pIC50 in test [2] (setting [4]) was 6.70 to 7.70.
With `COc1ncc(-c2ccn3nc(N)nc3c2)cc1NC(=O)c1cnn(Cc2ccccc2)c1` [Example 413, N-(5-(2-amino-[1,2,4]triazolo[1,5-a]pyridin-7-yl)-2-methoxypyridin-3-yl)-1-benzyl-1H-pyrazole-4-carboxamide], the pIC50 in test [2] (setting [6]) is < 6.70.
For `COc1ncc(-c2ccn3nc(N)nc3c2)cc1C(=O)NCCC(C)c1ccccc1` (stereo not drawn) [Example 85, 5-{2-Amino-[1,2,4]triazolo[1,5-a]pyridin-7-yl}-2-methoxy-N-(3-phenylbutyl)pyridine-3-carboxamide], the pIC50 in test [2] (setting [7]) is > 7.70.
Turning to `COc1ncc(-c2ccn3nc(N)nc3c2)cc1C(=O)NCC(C)Cc1ccccc1` (stereo not drawn) [Example 113, 5-{2-amino-[1,2,4]triazolo[1,5-a]pyridin-7-yl}-2-methoxy-N-(2-methyl-3-phenylpropyl)pyridine-3-carboxamide], the pIC50 in test [2] (setting [7]) was > 7.70.
Turning to `COc1ncc(-c2ccc3nc(N)nn3c2)cc1NC(=O)Cc1cc(OC(F)(F)F)ccc1F` [Example 418, N-(5-(2-amino-[1,2,4]triazolo[1,5-a]pyridin-6-yl)-2-methoxypyridin-3-yl)-2-(2-fluoro-5-(trifluoromethoxy)phenyl)acetamide], the pIC50 in test [2] (setting [4]) is 6.70 to 7.70.
